Measured values reported in the supplement of paper PMC11208160.

Assay: recombinant UMI read abundance after kanamycin selection (control-corrected) (log10(CPM+1)); higher = more efficient recombination; extreme values may be limits of the assay; sequences stand for … in AGTGCAGAGAAAATCGGCCAGTTTTCTCTGCCTGCAGTCCGCATGCCGTGGGACCCCTTGGGTTCTAACCTGTTGCCTAGATTTATGCAGCGGACTGCCTTTCTCCCAAAGTGATAAACCGG…AGGTTGGTTTCACT; site = the 11-nt donor
Procedure, shortened: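 For the IS621 bridge recombinase, a pooled Escherichia coli screen tested donor and donor-binding-loop pairs. Cells received the pair library together with a target plasmid encoding a fixed target and T7-inducible recombinase, then went onto IPTG (0.07 mM) plus kanamycin or unselected plates in duplicate. After PCR across the donor–target junction and sequencing, recombinant UMI counts were normalized to CPM, averaged, and scaled by control-derived factors. Each value is given as log10(CPM+1).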
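Further: IS621 bridge recombinase in Escherichia coli cells against a fixed T5 target plasmid.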

Sequence | recombinant UMI read abundance (log10)
CGGGAGCCATGGACCGGTTTTCCCGGTAATCCGTATTTGCC (site CGGGAGCCTGG) | 0
CGGGAGCCATGGACCGGTTTTCCCGGTAATCCGTATTTGCC (site CGGGAGGCTGG) | 0.991
CGGGAGCCATGGACCGGTTTTCCCGGTAATCCGTATTTGCC (site CGGGAGTCTGG) | 1
CGGGAGTCATGGACCGGTTTTCCCGGTAATCCGTATTTGCC (site AGGGAGTCTGG) | 0
CGGGAGTCATGGACCGGTTTTCCCGGTAATCCGTATTTGCC (site CAGGAGTCTGG) | 2.51
CGGGAGTCATGGACCGGTTTTCCCGGTAATCCGTATTTGCC (site CCGGAGTCTGG) | 0
CGGGAGTCATGGACCGGTTTTCCCGGTAATCCGTATTTGCC (site CGAGAGTCTGG) | 2.48
CGGGAGTCATGGACCGGTTTTCCCGGTAATCCGTATTTGCC (site CGCGAGTCTGG) | 1.69
CGGGAGTCATGGACCGGTTTTCCCGGTAATCCGTATTTGCC (site CGGAAGTCTGG) | 2.67
CGGGAGTCATGGACCGGTTTTCCCGGTAATCCGTATTTGCC (site CGGCAGTCTGG) | 0
CGGGAGTCATGGACCGGTTTTCCCGGTAATCCGTATTTGCC (site CGGGAATCTGG) | 2.83
CGGGAGTCATGGACCGGTTTTCCCGGTAATCCGTATTTGCC (site CGGGACTCTGG) | 0
CGGGAGTCATGGACCGGTTTTCCCGGTAATCCGTATTTGCC (site CGGGAGACTGG) | 1.54
CGGGAGTCATGGACCGGTTTTCCCGGTAATCCGTATTTGCC (site CGGGAGCCTGG) | 0
CGGGAGTCATGGACCGGTTTTCCCGGTAATCCGTATTTGCC (site CGGGAGGCTGG) | 0.103
CGGGAGTCATGGACCGGTTTTCCCGGTAATCCGTATTTGCC (site CGGGAGTCTAG) | 2.02
CGGGAGTCATGGACCGGTTTTCCCGGTAATCCGTATTTGCC (site CGGGAGTCTCG) | 1.51
CGGGAGTCATGGACCGGTTTTCCCGGTAATCCGTATTTGCC (site CGGGAGTCTGA) | 2.66
CGGGAGTCATGGACCGGTTTTCCCGGTAATCCGTATTTGCC (site CGGGAGTCTGC) | 2.08

Sequence | recombinant UMI read abundance (log10)
CGGGAGTCATGGACCGGTTTTCCCGGTAATCCGTATTTGCC (site CGGGAGTCTGG) | 1.67
CGGGAGTCATGGACCGGTTTTCCCGGTAATCCGTATTTGCC (site CGGGAGTCTGT) | 1.75
CGGGAGTCATGGACCGGTTTTCCCGGTAATCCGTATTTGCC (site CGGGAGTCTTG) | 2.01
CGGGAGTCATGGACCGGTTTTCCCGGTAATCCGTATTTGCC (site CGGGATTCTGG) | 0
CGGGAGTCATGGACCGGTTTTCCCGGTAATCCGTATTTGCC (site CGGGCGTCTGG) | 0
CGGGAGTCATGGACCGGTTTTCCCGGTAATCCGTATTTGCC (site CGGGGGTCTGG) | 1.3
CGGGAGTCATGGACCGGTTTTCCCGGTAATCCGTATTTGCC (site CGGGTGTCTGG) | 0
CGGGAGTCATGGACCGGTTTTCCCGGTAATCCGTATTTGCC (site CGGTAGTCTGG) | 0.878
CGGGAGTCATGGACCGGTTTTCCCGGTAATCCGTATTTGCC (site CGTGAGTCTGG) | 0.895
CGGGAGTCATGGACCGGTTTTCCCGGTAATCCGTATTTGCC (site CTGGAGTCTGG) | 2.06
CGGGAGTCATGGACCGGTTTTCCCGGTAATCCGTATTTGCC (site GGGGAGTCTGG) | 0
CGGGAGTCATGGACCGGTTTTCCCGGTAATCCGTATTTGCC (site TGGGAGTCTGG) | 0
CGGGATCCATGGACCGGTTTTCCCGGTAATCCGTATTTGAT (site CGGGAACCTAT) | 0.0108
CGGGATCCATGGACCGGTTTTCCCGGTAATCCGTATTTGAT (site CGGGACCCTAT) | 0.492
CGGGATCCATGGACCGGTTTTCCCGGTAATCCGTATTTGAT (site CGGGAGCCTAT) | 0.0289
CGGGATCCATGGACCGGTTTTCCCGGTAATCCGTATTTGAT (site CGGGATCCTAT) | 0.898
CGGGATCCATGGACCGGTTTTCCCGGTAATCCGTATTTGTT (site CGGAATCCTAA) | 0.736
CGGGATCCATGGACCGGTTTTCCCGGTAATCCGTATTTGTT (site CGGCATCCTAA) | 0.02
CGGGATCCATGGACCGGTTTTCCCGGTAATCCGTATTTGTT (site CGGGATCCTAA) | 0.85

Sequence | recombinant UMI read abundance (log10)
CGGGATCCATGGACCGGTTTTCCCGGTAATCCGTATTTGTT (site CGGTATCCTAA) | 0.243
CGGGCACCATGGACCGGTTTTCCCGGTAATCCGTATTTGAT (site CGGGAACCTAT) | 0
CGGGCACCATGGACCGGTTTTCCCGGTAATCCGTATTTGAT (site CGGGCACCTAT) | 0
CGGGCACCATGGACCGGTTTTCCCGGTAATCCGTATTTGAT (site CGGGGACCTAT) | 0.0117
CGGGCACCATGGACCGGTTTTCCCGGTAATCCGTATTTGAT (site CGGGTACCTAT) | 0
CGGGCATCATGGACCGGTTTTCCCGGTAATCCGTATTTGCT (site CGATCATCTAG) | 0
CGGGCATCATGGACCGGTTTTCCCGGTAATCCGTATTTGCT (site CGGACATCTAG) | 0.763
CGGGCATCATGGACCGGTTTTCCCGGTAATCCGTATTTGCT (site CGGCCATCTAG) | 0
CGGGCATCATGGACCGGTTTTCCCGGTAATCCGTATTTGCT (site CGGGCATCTAG) | 1.86
CGGGCATCATGGACCGGTTTTCCCGGTAATCCGTATTTGCT (site CGGTCATCTAG) | 0
CGGGCATCATGGACCGGTTTTCCCGGTAATCCGTATTTGTA (site CGGGCATCTTA) | 2.38
CGGGCTGCATGGACCGGTTTTCCCGGTAATCCGTATTTGAG (site CGGGCTGCTCT) | 1.37
CGGGGATCATGGACCGGTTTTCCCGGTAATCCGTATTTGTT (site CGGGGATCTAA) | 2.63
CGGGTCCCATGGACCGGTTTTCCCGGTAATCCGTATTTGCC (site CGGGTCCCTGG) | 1.39
CGGTACCCATGGACCGGTTTTCCCGGTAATCCGTATTTGGT (site CGGTACCCTAC) | 0.0101
CGGTAGACATGGACCGGTTTTCCCGGTAATCCGTATTTGAG (site CGATAGACTCT) | 2.01
CGGTAGACATGGACCGGTTTTCCCGGTAATCCGTATTTGAG (site CGCTAGACTCT) | 0.37
CGGTAGACATGGACCGGTTTTCCCGGTAATCCGTATTTGAG (site CGGTAGACTCT) | 1.9
CGGTAGACATGGACCGGTTTTCCCGGTAATCCGTATTTGAG (site CGTTAGACTCT) | 0.371
